Drawing on ChEMBL document CHEMBL4004875, “Synthesis of bulky-tailed sulfonamides incorporating pyrido[2,3-d][1,2,4]triazolo[4,3-a]pyrimidin-1(5H)-yl) moieties and evaluation of their carbonic anhydrases I, II, IV and IX inhibitory effects” (Bioorg Med Chem, 2017), this text covers Ki and inhibition for 21 compounds.

In one test the target is Carbonic anhydrase 9 (Homo sapiens, UniProt Q16790).
Test [1] deals with T1, Carbonic anhydrase 1 (Homo sapiens, UniProt P00915). As to the kind of experiment: Inhibition of recombinant human cytosolic carbonic anhydrase 1 assessed as inhibition of CO2 hydration up to 100 uM preincubated for 15 mins prior to testing by phenol red based stopped-flow CO2 hydration assay.
Target sequence in this assay (P00915 2-261 limits assumed): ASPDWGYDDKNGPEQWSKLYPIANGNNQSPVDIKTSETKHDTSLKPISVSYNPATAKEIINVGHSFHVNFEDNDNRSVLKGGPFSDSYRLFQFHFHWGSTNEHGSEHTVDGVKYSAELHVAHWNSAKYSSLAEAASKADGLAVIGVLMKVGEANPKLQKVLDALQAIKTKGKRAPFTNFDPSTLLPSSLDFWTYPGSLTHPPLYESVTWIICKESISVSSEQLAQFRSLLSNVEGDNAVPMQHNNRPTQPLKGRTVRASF
In test [2] the target is T2, Carbonic anhydrase 4 (Homo sapiens, UniProt P22748). The test is described as follows: Inhibition of recombinant human membrane-associated carbonic anhydrase 4 assessed as inhibition of CO2 hydration preincubated for 15 mins prior to testing by phenol red based stopped-flow CO2 hydration assay.
T2 sequence (P22748 whole entry): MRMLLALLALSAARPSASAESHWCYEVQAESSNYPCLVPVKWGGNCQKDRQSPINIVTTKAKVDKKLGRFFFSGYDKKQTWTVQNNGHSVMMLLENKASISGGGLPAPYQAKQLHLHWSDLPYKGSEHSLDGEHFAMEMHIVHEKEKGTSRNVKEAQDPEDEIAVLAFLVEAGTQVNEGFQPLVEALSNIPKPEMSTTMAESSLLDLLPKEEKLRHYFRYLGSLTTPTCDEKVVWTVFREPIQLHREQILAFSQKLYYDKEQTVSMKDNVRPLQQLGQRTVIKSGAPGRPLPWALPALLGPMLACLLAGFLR
Another test has as its target Carbonic anhydrase 2 (Homo sapiens, UniProt P00918). The test is described as follows: Inhibition of recombinant human carbonic anhydrase 2 assessed as inhibition of CO2 hydration preincubated for 15 mins prior to testing by phenol red based stopped-flow CO2 hydration assay.
In test [3] the target is T1, Carbonic anhydrase 1. As to the kind of experiment: Inhibition of recombinant human cytosolic carbonic anhydrase 1 assessed as inhibition of CO2 hydration preincubated for 15 mins prior to testing by phenol red based stopped-flow CO2 hydration assay.
Target sequence in this assay (P00915 whole entry): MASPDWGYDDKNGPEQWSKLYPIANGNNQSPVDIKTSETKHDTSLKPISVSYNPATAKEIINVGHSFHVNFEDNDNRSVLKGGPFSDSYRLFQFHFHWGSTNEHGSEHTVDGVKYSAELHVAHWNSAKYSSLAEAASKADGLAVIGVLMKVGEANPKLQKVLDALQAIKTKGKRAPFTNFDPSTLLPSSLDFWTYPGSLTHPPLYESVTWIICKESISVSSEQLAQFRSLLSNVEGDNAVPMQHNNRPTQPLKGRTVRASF
Test [4] concerns the target T2, Carbonic anhydrase 4. The test is described as follows: Inhibition of recombinant human membrane-associated carbonic anhydrase 4 assessed as inhibition of CO2 hydration up to 100 uM preincubated for 15 mins prior to testing by phenol red based stopped-flow CO2 hydration assay.

Activity calls are given as the source filed them. The rule behind the calls is not given here.

Description for Carbonic anhydrase 9: Inhibition of recombinant human tumor-associated carbonic anhydrase 9 assessed as inhibition of CO2 hydration preincubated for 15 mins prior to testing by phenol red based stopped-flow CO2 hydration assay

As for `CCOC(=O)c1nn(-c2ccc(S(N)(=O)=O)cc2)c2nc3nc(-c4cccs4)cc(-c4ccc(OC)cc4)c3c(=O)n12`, the Ki (as a rule, the equilibrium dissociation constant of an inhibitor or competing ligand from its target) at Carbonic anhydrase 9 turned out to be 380 nM.
`CC(=O)c1nn(-c2ccc(S(N)(=O)=O)cc2)c2nc3nc(-c4ccc(Cl)cc4)cc(-c4ccc(F)cc4)c3c(=O)n12`: the Ki at Carbonic anhydrase 9 stood at 250 nM.
Turning to `COc1ccc(-c2cc(-c3ccc(Cl)cc3)nc3nc4n(-c5ccc(S(N)(=O)=O)cc5)nc(C(C)=O)n4c(=O)c23)cc1`, the inhibition constant (Ki) at Carbonic anhydrase 9 was determined as 330 nM.
For the compound `CCOC(=O)c1nn(-c2ccc(S(N)(=O)=O)cc2)c2nc3nc(-c4cccs4)cc(-c4ccc([N+](=O)[O-])cc4)c3c(=O)n12`, on Carbonic anhydrase 9, the affinity corresponds to a Ki of 1100 nM.
For the compound `CC(=O)c1nn(-c2ccc(S(N)(=O)=O)cc2)c2nc3nc(-c4cccs4)cc(-c4ccc(Cl)cc4)c3c(=O)n12`, the Ki at Carbonic anhydrase 9 was determined as 990 nM. Further, at Carbonic anhydrase 1 [1], the inhibition entry was “inactive”.
The compound `CCOC(=O)c1nn(-c2ccc(S(N)(=O)=O)cc2)c2nc3nc(-c4ccc(Cl)cc4)cc(-c4ccc([N+](=O)[O-])cc4)c3c(=O)n12` registered a Ki at Carbonic anhydrase 9 of 2460 nM.
On Carbonic anhydrase 9, `CC(=O)c1nn(-c2ccc(S(N)(=O)=O)cc2)c2nc3nc(-c4ccc(Cl)cc4)cc(-c4ccccc4)c3c(=O)n12` came in with a Ki of 180 nM.
Compound `CCOC(=O)c1nn(-c2ccc(S(N)(=O)=O)cc2)c2nc3nc(-c4ccc(Cl)cc4)cc(-c4ccccc4)c3c(=O)n12` yielded a Ki at Carbonic anhydrase 9 of 3260 nM. Also, the inhibition result at Carbonic anhydrase 1 [1] is “inactive”.
On Carbonic anhydrase 9, `CCOC(=O)c1nn(-c2ccc(S(N)(=O)=O)cc2)c2nc3nc(-c4ccc(Cl)cc4)cc(-c4ccc(F)cc4)c3c(=O)n12` showed an inhibitory constant (Ki) of 3240 nM.
Compound `CCOC(=O)c1nn(-c2ccc(S(N)(=O)=O)cc2)c2nc3nc(-c4cccs4)cc(-c4ccc(F)cc4)c3c(=O)n12` showed a Ki at Carbonic anhydrase 9 of 1620 nM. The inhibition entry at Carbonic anhydrase 1 [1] is “inactive”.
Take `CCOC(=O)c1nn(-c2ccc(S(N)(=O)=O)cc2)c2nc3nc(-c4ccc(Cl)cc4)cc(-c4ccc(Cl)cc4)c3c(=O)n12`: on Carbonic anhydrase 9, the Ki worked out at 1460 nM.
`CCOC(=O)c1nn(-c2ccc(S(N)(=O)=O)cc2)c2nc3nc(-c4cccs4)cc(-c4ccc(Cl)cc4)c3c(=O)n12`: the affinity on Carbonic anhydrase 9 corresponds to a Ki of 390 nM.
`CC(=O)c1nn(-c2ccc(S(N)(=O)=O)cc2)c2nc3nc(-c4cccs4)cc(-c4ccc(F)cc4)c3c(=O)n12` had a Ki on Carbonic anhydrase 9 of 190 nM.
As to `Cc1ccc(-c2cc(C(F)(F)F)nn2-c2ccc(S(N)(=O)=O)cc2)cc1` [CELECOXIB], the inhibition constant (Ki) on Carbonic anhydrase 4 [2] is 290 nM; on Carbonic anhydrase 9, 20 nM.
Take `CC(=O)c1nn(-c2ccc(S(N)(=O)=O)cc2)c2nc3nc(-c4ccc(Cl)cc4)cc(-c4ccc([N+](=O)[O-])cc4)c3c(=O)n12`: the affinity on Carbonic anhydrase 9 corresponds to a Ki of 330 nM.
Regarding `CC(=O)c1nn(-c2ccc(S(N)(=O)=O)cc2)c2nc3nc(-c4cccs4)cc(-c4ccccc4)c3c(=O)n12`, the Ki on Carbonic anhydrase 2 stood at 730 nM; at Carbonic anhydrase 4 [2], 4790 nM; at Carbonic anhydrase 1 [3], 6780 nM; on Carbonic anhydrase 9 it was 1120 nM.
`CC(=O)c1nn(-c2ccc(S(N)(=O)=O)cc2)c2nc3nc(-c4ccc(Cl)cc4)cc(-c4ccc(Cl)cc4)c3c(=O)n12` showed a Ki at Carbonic anhydrase 9 of 350 nM.
For the compound `COc1ccc(-c2cc(-c3cccs3)nc3nc4n(-c5ccc(S(N)(=O)=O)cc5)nc(C(C)=O)n4c(=O)c23)cc1`, at Carbonic anhydrase 9, the inhibition constant Ki is 420 nM.
Take `CCOC(=O)c1nn(-c2ccc(S(N)(=O)=O)cc2)c2nc3nc(-c4cccs4)cc(-c4ccccc4)c3c(=O)n12`: the inhibition result at Carbonic anhydrase 4 [4] is “inactive”. Moreover, the inhibition constant Ki at Carbonic anhydrase 9 worked out at 1900 nM.
In the case of `CCOC(=O)c1nn(-c2ccc(S(N)(=O)=O)cc2)c2nc3nc(-c4ccc(Cl)cc4)cc(-c4ccc(OC)cc4)c3c(=O)n12`, the inhibition entry at Carbonic anhydrase 4 [4] was “inactive”. The same compound registered an inhibitory constant (Ki) at Carbonic anhydrase 9 of 1450 nM.
Compound `CC(=O)c1nn(-c2ccc(S(N)(=O)=O)cc2)c2nc3nc(-c4cccs4)cc(-c4ccc([N+](=O)[O-])cc4)c3c(=O)n12` returned a Ki on Carbonic anhydrase 9 of 160 nM.
